The source of these data is ChEMBL document CHEMBL1125546, “Novel 5-HT3 antagonists. Isoquinolinones and 3-aryl-2-pyridones” (J Med Chem, 1992).

A short description of assay [1]: Compound was evaluated for protection against cisplatin-induced emesis by measuring number of emetic episodes in ferrets when administered intravenously at 0.1 mg/kg. It counts as functional, Mustela putorius furo. The following applies: route intravenous.
Assay [2] in a line: Compound was evaluated for protection against cisplatin-induced emesis by measuring number of retches in ferrets when administered intravenously at 0.1 mg/kg. It counts as functional, Mustela putorius furo. As to conditions: route intravenous.
Assay [3] can be described thus: Compound was evaluated for protection against cisplatin-induced emesis by measuring number of retches in ferrets when administered intravenously at 0.03 mg/kg. In kind it is functional, Mustela putorius furo. The following applies: route intravenous.
The test system of assay [4] is Rattus norvegicus. The experiment in a line: Inhibitory activity against Bezold-jarisch functional assay, inducing a transient bradycardia upon intravenous administration of 5-hydroxytryptamine-(10 ug/kg) in anesthetized rats. The following applies: read-out: ID50 (the source's name).
A short description of assay [5]: Compound was evaluated for protection against cisplatin-induced emesis by measuring number of emetic episodes in ferrets when administered intravenously at 0.03 mg/kg. As to conditions: route intravenous. In kind it is functional, Mustela putorius furo.
Assay [6] can be described thus: Compound was evaluated for protection against cisplatin-induced emesis by measuring number of retches in ferrets when administered intravenously at 0.1 mg/kg. In kind it is functional, Mustela putorius furo. As to conditions: route intravenous.
Assay [7] in a line: Compound was evaluated for protection against cisplatin-induced emesis by measuring number of retches in ferrets when administered perorally at 0.03 mg/kg. In kind it is functional, Mustela putorius furo. The following applies: route oral.
A short description of assay [8]: Compound was evaluated for protection against cisplatin-induced emesis by measuring number of emetic episodes in ferrets when administered intravenously at 0.3 mg/kg. The following applies: route intravenous. It counts as functional, Mustela putorius furo.
Assay [9] in a line: Compound was evaluated for protection against cisplatin-induced emesis by measuring number of emetic episodes in ferrets when administered perorally at 0.03 mg/kg. It counts as functional, Mustela putorius furo. As to conditions: route oral.
Assay [10] in a line: Compound was evaluated for protection against cisplatin-induced emesis by measuring number of retches in ferrets when administered intravenously at 0.3 mg/kg. In kind it is functional, Mustela putorius furo. As to conditions: route intravenous.
Assay [11] is described as follows: Compound was evaluated for protection against cisplatin-induced emesis by measuring number of emetic episodes in ferrets when administered perorally at 0.1 mg/kg. In kind it is functional, Mustela putorius furo. As to conditions: route oral.
A short description of assay [12]: Compound was evaluated for protection against cisplatin-induced emesis by measuring number of emetic episodes in ferrets when administered perorally at 0.3 mg/kg. As to conditions: route oral. In kind it is functional, Mustela putorius furo.
Assay [13] is described as follows: Compound was evaluated for protection against cisplatin-induced emesis by measuring number of retches in ferrets when administered intravenously at 0.01 mg/kg. It counts as functional, Mustela putorius furo. The following applies: route intravenous.
The nature of assay [14]: Compound was evaluated for protection against cisplatin-induced emesis by measuring number of retches in ferrets when administered perorally at 0.1 mg/kg. The following applies: route oral. It counts as functional, Mustela putorius furo.
The nature of assay [15]: Compound was evaluated for protection against cisplatin-induced emesis by measuring number of emetic episodes in ferrets when administered intravenously at 0.01 mg/kg. The following applies: route intravenous. It counts as functional, Mustela putorius furo.
Assay [16] can be described thus: Compound was evaluated for protection against cisplatin-induced emesis by measuring number of retches in ferrets when administered perorally at 0.3 mg/kg. It counts as functional, Mustela putorius furo. As to conditions: route oral.

For the compound `Cc1[nH]cnc1Cn1cccc(-c2cccs2)c1=O`, the “No. of emetic episodes” value amounted to 1.3 in [1] and 6 in [5]. Besides, the figures for the No. of retches in assay [2] and in assay [3] were 22 and 90.8, respectively. Further, the ED50 in [4] came to 0.27 µg/kg.
With `Cc1cc2c(=O)n(Cc3[nH]cnc3C)ccc2cc1N`, in assay [4], the ED50 was 4.1 µg/kg.
Take `CCn1c2ccccc2c2c3c(=O)n(Cc4[nH]cnc4C)ccc3ccc21`: in assay [4], the ED50 amounted to 43.9 µg/kg.
Still for that read-out and setting: under `Cc1[nH]cnc1Cn1cccc(-c2cccc([N+](=O)[O-])c2)c1=O` stands over 100 µg/kg; under `Cc1[nH]cnc1Cn1cccc(-c2cc3ccccc3s2)c1=O`, over 100 µg/kg; under `Cc1[nH]cnc1Cn1cccc(-c2ccc(Br)s2)c1=O`, 7.49 µg/kg.
On the same count and under the same terms, as for `Cc1ccsc1-c1cccn(Cc2[nH]cnc2C)c1=O`, the figure is 0.44 µg/kg; as for `COc1ccccc1-c1cccn(Cc2[nH]cnc2C)c1=O`, 18.2 µg/kg.
Still for that read-out and setting: under `Cc1[nH]cnc1Cn1cccc(-c2ccccc2)c1=O` stands 12 µg/kg.
As to `Cc1cccc(-c2cccn(Cc3[nH]cnc3C)c2=O)c1`, in assay [4], the ED50 is 9.03 µg/kg.
As for `Cc1[nH]cnc1Cn1ccc2cc(N)c(Cl)cc2c1=O`, the No. of retches is 26.5 in [6]; 142.2 in assay [7]; 18.8 in assay [10]; 116.8 in assay [13]; 18.6 in [14]; 3.5 in assay [16]. The compound also showed a No. of retches in assay [3] of 71. For the same compound, the “No. of emetic episodes” value in assay [8] was 0.8; in assay [1], 1.3; in assay [9], 8.8; in assay [11], 1.2; in assay [12] it was 0.2; in [15] it was 10. Moreover, the “No. of emetic episodes” value in assay [5] is 4.8. In addition, the ED50 in [4] was found to be 0.36 µg/kg.
For the compound `Cc1[nH]cnc1Cn1cccc(-c2ccco2)c1=O`, the ED50 in [4] was found to be 0.9 µg/kg.
With `COc1ccc2c(ccc3ccn(Cc4[nH]cnc4C)c(=O)c32)c1`, the ED50 in [4] came out at 56.6 µg/kg.
Still for that read-out and setting: as for `Cc1[nH]cnc1Cn1ccc2c(O)nc3ccccc3c2c1=O`, the figure is 0.05 µg/kg; as for `Cc1[nH]cnc1Cn1cnc2ccccc2c1=O`, over 100 µg/kg; as for `Cc1[nH]cnc1Cn1ccc2c(O)cc3ccccc3c2c1=O`, 0.62 µg/kg.
Same read-out and setting: as for `COc1cc(N)c(Cl)cc1C(=O)NCc1[nH]cnc1C`, the figure is 3.53 µg/kg; as for `Cc1nc[nH]c1Cn1ccc2c(C(=O)N(C)C)cc3ccccc3c2c1=O`, 7.46 µg/kg.
Take `Cc1[nH]cnc1Cn1ccc2ccccc2c1=O`: the ED50 in assay [4] came to 38.7 µg/kg.
Consider `Cc1[nH]cnc1Cn1cccc(-c2cccc(Cl)c2)c1=O`, for which, in [4], the ED50 is 10 µg/kg.
Still for that read-out and setting: as for `Cc1[nH]cnc1Cn1ccc2ccc(Cl)cc2c1=O`, the figure is 25.5 µg/kg; as for `Cc1[nH]cnc1Cn1ccc2c3ccccc3c3ccccc3c2c1=O`, 6.95 µg/kg.
The same measure, in the same setting: as for `Cc1[nH]cnc1Cn1ccc2nc3ccccc3cc2c1=O`, the figure is 19.5 µg/kg; as for `Cc1[nH]cnc1Cn1ccc2c(c1=O)-c1ccsc1CC2`, 2.78 µg/kg; as for `COc1cccc(-c2cccn(Cc3[nH]cnc3C)c2=O)c1`, 26.7 µg/kg.
On the same count and under the same terms, as for `Cc1[nH]cnc1Cn1ccc2cccc(N)c2c1=O`, the figure is 53.1 µg/kg; as for `Cc1[nH]cnc1Cn1ccc2c(N)cccc2c1=O`, over 100 µg/kg; as for `Cc1[nH]cnc1Cn1cccc(-c2cccn2C)c1=O`, 43.3 µg/kg.
In the case of `COc1cc2ccccc2c2c(=O)n(Cc3[nH]cnc3C)ccc12`, in [4], the ED50 is 2.53 µg/kg.
Regarding `Cc1[nH]cnc1Cn1ccc2cc(N)ccc2c1=O`, the ED50 in [4] was 37.9 µg/kg.
The same measure, in the same setting: under `Cc1[nH]cnc1Cn1ncc2ccccc2c1=O` stands over 100 µg/kg; under `Cc1nc[nH]c1Cn1ccc2cc(C)c3ccccc3c2c1=O`, 0.82 µg/kg.
Same read-out and setting: as for `Cc1nc[nH]c1Cn1ccc2c(=O)n(C)c3ccccc3c2c1=O`, the figure is 0.23 µg/kg; as for `Cc1[nH]cnc1Cn1ccc2c(c1=O)-c1ccccc1CC2`, 0.46 µg/kg.
`Cc1ccc(-c2cccn(Cc3[nH]cnc3C)c2=O)o1`: the ED50 in assay [4] stood at 9.18 µg/kg.
Same read-out and setting: as for `Cc1[nH]cnc1Cn1cccc(-c2cccc(F)c2)c1=O`, the figure is 29.9 µg/kg; as for `Cc1[nH]cnc1Cn1ccc2ccc3cccnc3c2c1=O`, 24.3 µg/kg.
On the same count and under the same terms, under `Cc1[nH]cnc1Cn1cccc(-c2ccoc2)c1=O` stands 8.65 µg/kg.
With `Cc1[nH]cnc1Cn1cccc(-c2ccccc2O)c1=O`, in [4], the ED50 was 40 µg/kg.
`Cc1[nH]cnc1Cn1ccc2ccc3c(ccn3C)c2c1=O`: the ED50 in assay [4] is 1.64 µg/kg.
On to `Cc1[nH]cnc1Cn1cccc(-c2ccccn2)c1=O`, for which, in [4], the ED50 turned out to be 10.4 µg/kg.
With `Cc1[nH]cnc1Cn1cccc(-c2ccsc2)c1=O`, the ED50 in [4] was determined as 3.1 µg/kg.
In the case of `Cc1ccc(-c2cccn(Cc3[nH]cnc3C)c2=O)s1`, the ED50 in assay [4] amounted to 3.62 µg/kg.
Regarding `Cc1nc[nH]c1Cn1ccc2c(C)cc3ccccc3c2c1=O`, the ED50 in [4] came to 1.09 µg/kg.
The same measure, in the same setting: under `Cc1[nH]cnc1Cn1ccc2cnc3ccccc3c2c1=O` stands 0.28 µg/kg; under `Cc1[nH]cnc1Cn1ccc2ncc3ccccc3c2c1=O`, 0.16 µg/kg.
Turning to `Cc1[nH]cnc1Cn1ccc2c(Cl)cc(Cl)cc2c1=O`, in [4], the ED50 came to 34.6 µg/kg.
The same measure, in the same setting: as for `Cc1[nH]cnc1Cn1ccc2ccc3ncccc3c2c1=O`, the figure is 2.86 µg/kg; as for `Cc1[nH]cnc1Cn1ccc2cc(Br)c3ccccc3c2c1=O`, 6.21 µg/kg.
Same read-out and setting: under `COc1ccc(-c2cccn(Cc3[nH]cnc3C)c2=O)cc1` stands over 100 µg/kg; under `Cc1[nH]cnc1Cn1ccc2cc3c(cc2c1=O)OCCO3`, over 100 µg/kg.
With `Cc1[nH]cnc1Cn1ccc2c(CO)cc3ccccc3c2c1=O`, the ED50 in [4] was determined as 0.68 µg/kg.
